According to ChEMBL document CHEMBL1275578, “Genotypic versus phenotypic characterization, with respect to beta-lactam susceptibility, of Haemophilus influenzae isolates exhibiting decreased susceptibility to beta-lactam resistance markers” (2009):
In brackets after ≈: the same amount, converted by molar mass.

Assays:
Format in all cases: functional
Haemophilus influenzae [1] = assay: Antimicrobial activity against beta-lactamase negative Haemophilus influenzae expressing […] gene by microdilution method
Haemophilus influenzae [2] = assay: Antimicrobial activity against beta-lactamase negative Haemophilus influenzae expressing […] gene assessed as resistant isolates by microdilution method
Haemophilus influenzae [3] = assay: Antimicrobial activity against beta-lactamase negative, ampicillin-resistant Haemophilus influenzae expressing […] mutant gene assessed as resistant isolates by microdilution method
Haemophilus influenzae [4] = assay: Antimicrobial activity against beta-lactamase positive Haemophilus influenzae expressing […] gene by microdilution method
Haemophilus influenzae [5] = assay: Antimicrobial activity against beta-lactamase positive, ampicillin-clavulanic acid resistant Haemophilus influenzae expressing […] mutant gene by microdilution method
Haemophilus influenzae [6] = assay: Antimicrobial activity against beta-lactamase positive Haemophilus influenzae expressing […] gene assessed as resistant isolates by microdilution method
Haemophilus influenzae [7] = assay: Antimicrobial activity against beta-lactamase positive, ampicillin-clavulanic acid resistant Haemophilus influenzae expressing […] mutant gene assessed as resistant isolates by microdilution method
Haemophilus influenzae [8] = assay: Antimicrobial activity against beta-lactamase negative, ampicillin-resistant Haemophilus influenzae expressing […] mutant gene by microdilution method
Haemophilus influenzae [9] = assay: Antimicrobial activity against beta-lactamase positive, ampicillin-clavulanic acid resistant Haemophilus influenzae expressing […] mutant gene assessed as resistant isolates by microdilution method in presence of beta-lactamase inhibitor clavulanic acid
Haemophilus influenzae [10] = assay: Antimicrobial activity against beta-lactamase negative, ampicillin-resistant Haemophilus influenzae expressing […] mutant gene assessed as resistant isolates by microdilution method in presence of beta-lactamase inhibitor clavulanic acid
Haemophilus influenzae [11] = assay: Antimicrobial activity against beta-lactamase positive, ampicillin-clavulanic acid resistant Haemophilus influenzae expressing […] mutant gene by microdilution method in presence of beta-lactamase inhibitor clavulanic acid
Haemophilus influenzae [12] = assay: Antimicrobial activity against beta-lactamase negative Haemophilus influenzae expressing […] gene by microdilution method in presence of beta-lactamase inhibitor clavulanic acid
Haemophilus influenzae [13] = assay: Antimicrobial activity against beta-lactamase negative, ampicillin-resistant Haemophilus influenzae expressing […] mutant gene by microdilution method in presence of beta-lactamase inhibitor clavulanic acid
Haemophilus influenzae [14] = assay: Antimicrobial activity against beta-lactamase positive Haemophilus influenzae expressing […] gene by microdilution method in presence of beta-lactamase inhibitor clavulanic acid
Haemophilus influenzae [15] = assay: Antimicrobial activity against beta-lactamase positive Haemophilus influenzae expressing […] gene assessed as resistant isolates by microdilution method in presence of beta-lactamase inhibitor clavulanic acid

SMILES	MIC50 (Haemophilus influenzae [1]) [µg/mL]	MIC90 (Haemophilus influenzae [1]) [µg/mL]	Activity (Haemophilus influenzae [2]) [%]	Activity (Haemophilus influenzae [3]) [%]	MIC50 (Haemophilus influenzae [4]) [µg/mL]	MIC90 (Haemophilus influenzae [4]) [µg/mL]	MIC50 (Haemophilus influenzae [5]) [µg/mL]	MIC90 (Haemophilus influenzae [5]) [µg/mL]	Activity (Haemophilus influenzae [6]) [%]	Activity (Haemophilus influenzae [7]) [%]	MIC50 (Haemophilus influenzae [8]) [µg/mL]	MIC90 (Haemophilus influenzae [8]) [µg/mL]	other results
CO/N=C(\C(=O)N[C@@H]1C(=O)N2C(C(=O)O)=C(COC(C)=O)CS[C@H]12)c1csc(N)n1 [CEFOTAXIME]	0.03 (≈ 0.0659 µM)	0.25 (≈ 0.549 µM)	0	0.8	0.03 (≈ 0.0659 µM)	0.06 (≈ 0.132 µM)	0.03	0.25	0	0	0.06 (≈ 0.132 µM)	0.5 (≈ 1.1 µM)	–
CC1(C)S[C@@H]2[C@H](NC(=O)[C@H](N)c3ccccc3)C(=O)N2[C@H]1C(=O)O [AMPICILLIN]	1 (≈ 2.86 µM)	2 (≈ 5.72 µM)	30	98.3	≥ 128	≥ 128	–	–	100	95.5	2 (≈ 5.72 µM)	4 (≈ 11.4 µM)	–
CC1(C)S[C@@H]2[C@H](NC(=O)[C@H](N)c3ccc(O)cc3)C(=O)N2[C@H]1C(=O)O [AMOXICILLIN]	–	–	–	–	–	–	–	–	–	–	–	–	Activity (Haemophilus influenzae [9]): 25%; Activity (Haemophilus influenzae [10]): 9.9%; MIC50 (Haemophilus influenzae [11]): 4 µg/mL; MIC90 (Haemophilus influenzae [11]): 8 µg/mL; MIC50 (Haemophilus influenzae [12]): 0.5 µg/mL; MIC90 (Haemophilus influenzae [12]): 4 µg/mL; MIC50 (Haemophilus influenzae [13]): 2 µg/mL; MIC90 (Haemophilus influenzae [13]): 4 µg/mL; MIC50 (Haemophilus influenzae [14]): 2 µg/mL; MIC90 (Haemophilus influenzae [14]): 4 µg/mL; Activity (Haemophilus influenzae [15]): 4.8%
N[C@@H](C(=O)N[C@@H]1C(=O)N2C(C(=O)O)=C(Cl)CS[C@H]12)c1ccccc1 [CEFACLOR ANHYDROUS]	8 (≈ 21.8 µM)	32 (≈ 87 µM)	40	70.2	32 (≈ 87 µM)	≥ 128	32	64	76.2	86.4	32 (≈ 87 µM)	–	–
CO/N=C(\C(=O)N[C@@H]1C(=O)N2C(C(=O)OCOC(=O)C(C)(C)C)=C(/C=C\c3scnc3C)CS[C@H]12)c1csc(N)n1 [CEFDITOREN PIVOXIL]	0.03 (≈ 0.0483 µM)	0.06 (≈ 0.0967 µM)	–	–	0.03 (≈ 0.0483 µM)	0.06 (≈ 0.0967 µM)	0.03	0.06	–	–	0.06 (≈ 0.0967 µM)	0.06 (≈ 0.0967 µM)	–
C=CC1=C(C(=O)O)N2C(=O)[C@@H](NC(=O)/C(=N\O)c3csc(N)n3)[C@H]2SC1 [CEFDINIR]	1 (≈ 2.53 µM)	4 (≈ 10.1 µM)	40	57	0.5 (≈ 1.26 µM)	4 (≈ 10.1 µM)	2	4	33.3	52.3	2 (≈ 5.06 µM)	8 (≈ 20.2 µM)	–
CO/N=C(\C(=O)N[C@@H]1C(=O)N2C(C(=O)O)=C(COC(N)=O)CS[C@H]12)c1ccco1 [CEFUROXIME]	1 (≈ 2.36 µM)	8 (≈ 18.9 µM)	20	48.8	2 (≈ 4.71 µM)	8 (≈ 18.9 µM)	4	16	19	45.4	4 (≈ 9.43 µM)	16 (≈ 37.7 µM)	–
